This is an account of results in patent US11554171B2, “Compounds and methods for the targeted degradation of bromodomain-containing proteins” (Arvinas Operations, Inc., priority 2015, dated 2023).

Broadly, the DC50 is the midpoint of the concentration-degradation curve.

The assay deals with c-myc in 22RV-1 cells. Nature of the assay: Human c-myc ELISA assay. Particulars: Homo sapiens; for Emax: 22Rv1, 18 h, read-out: Degradation of BRD4: Maximum inhibition (%) c-Myc ELISA in 22RV1 cells; for DC50: 22Rv1, read-out: Degradation of BRD4: DC50 (uM) c-Myc ELISA in 22RV1 cells. The format is cell-based. Put shortly: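 c-myc levels measured by ELISA in RIPA lysates of 22RV-1 cells, calibrated with a 333-0 pg/ml standard curve. Lysates came from cells exposed for 18 h to an 8-point, 1:3 dose series starting at 300 nM or 1 μM final in 0.1% DMSO. Suppression potency given as DC50.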

Some results are limits rather than exact numbers.

As for `Cc1ncsc1-c1ccc(CNC(=O)[C@@H]2C[C@@H](O)CN2C(=O)[C@@H](NC(=O)Cc2cccc(OCCCNC(=O)C[C@@H]3N=C(c4ccc(Cl)cc4)c4c(sc(C)c4C)-n4c(C)nnc43)c2)C(C)(C)C)cc1` [Example 61, (2S,4R)-1-[(2S)-2-{2-[3-(3-{2-[(9S)-7-(4-chlorophenyl)-4,5,13-trimethyl-3-thia-1,8,11,12-tetraazatricyclo[8.3.0.0^2,^6]trideca-2(6),4,7,10,12-pentaen-9-yl]acetamido}propoxy)phenyl]acetamido}-3,3-dimethylbutanoyl]-4-hydroxy-N-{[4-(4-methyl-1,3-thiazol-5-yl)phenyl]methyl}pyrrolidine-2-carboxamide], the Emax stood at 96% and the DC50 was in the range of 0.01 to 0.1 µM.
For `Cc1ncoc1-c1ccc([C@H](C)NC(=O)[C@@H]2C[C@@H](O)CN2C(=O)[C@@H](NC(=O)COc2ccc(O[C@H]3C[C@@H](NC(=O)C[C@@H]4N=C(c5ccc(Cl)cc5)c5c(sc(C)c5C)-n5c(C)nnc54)C3)nc2)C(C)(C)C)cc1` [Example 278], the Emax amounted to 95.4% and the DC50 is < 0.01 µM.
Turning to `CNC[C@@H](NC(=O)[C@@H]1C[C@@H](O)CN1C(=O)[C@@H](NC(=O)COCCCOCCNC(=O)C[C@@H]1N=C(c2ccc(Cl)cc2)c2c(sc(C)c2C)-n2c(C)nnc21)C(C)(C)C)c1ccc(-c2scnc2C)cc1` [Example 111], the Emax came to 47.3% and the DC50 is > 1 µM.
`Cc1ncsc1-c1ccc(CNC(=O)[C@@H]2C[C@@H](O)CN2C(=O)[C@@H](NC(=O)COCCCOCCNC(=O)CC2N=C(c3ccc(Cl)cc3)c3c(sc(C)c3C)-n3c(C)nnc32)C(C)(C)C)cc1` (stereo partly drawn) [Example 105]: the Emax is 97% and the half-maximal degradation concentration (DC50) is 0.01 to 0.1 µM.
For `Cc1ncsc1-c1ccc(CNC(=O)[C@@H]2C[C@@H](O)CN2C(=O)[C@@H](c2cc(OCCN3CCC(NC(=O)C[C@@H]4N=C(c5ccc(Cl)cc5)c5c(sc(C)c5C)-n5c(C)nnc54)CC3)no2)C(C)C)cc1` [Example 314] the same measures were 87% and < 0.01 µM.
In the case of `Cc1ncsc1-c1ccc(CNC(=O)[C@@H]2C[C@@H](O)CN2C(=O)[C@@H](NC(=O)COCCOCCOCCOCCNC(=O)C[C@@H]2N=C(c3ccc(Cl)cc3)c3c(sc(C)c3C)-n3c(C)nnc32)C(C)(C)C)cc1` [Example 38], the Emax was 94% and the DC50 lay in the range of 0.01 to 0.1 µM.
As to `Cc1ncsc1-c1ccc(CNC(=O)[C@@H]2C[C@@H](O)CN2C(=O)[C@@H](NC(=O)COCCCOCCCOc2ccc(NC(=O)C[C@@H]3N=C(c4ccc(Cl)cc4)c4c(sc(C)c4C)-n4c(C(C)C)nnc43)cc2)C(C)(C)C)cc1` [Example 54], the Emax came to 63% and the DC50 is > 1 µM.
As for `Cc1ncsc1-c1ccc([C@H](C)NC(=O)[C@@H]2C[C@@H](O)CN2C(=O)[C@@H](NC(=O)CN2CCC(N3C[C@@H]4C[C@H]3CN4C(=O)C[C@@H]3N=C(c4ccc(Cl)cc4)c4c(sc(C)c4C)-n4c(C)nnc43)CC2)C(C)(C)C)cc1` [Example 368, (2S,4R)-1-[(2S)-2-(2-{4-[(1S,4S)-5-{2-[(9S)-7-(4-chlorophenyl)-4,5,13-trimethyl-3-thia-1,8,11,12-tetraazatricyclo[8.3.0.0^2,6]trideca-2(6),4,7,10,12-pentaen-9-yl]acetyl}-2,5-diazabicyclo[2.2.1]heptan-2-yl]piperidin-1-yl}acetamido)-3,3-dimethylbutanoyl]-4-hydroxy-N-[(1S)-1-[4-(4-methyl-1,3-thiazol-5-yl)phenyl]ethyl]pyrrolidine-2-carboxamide], the Emax worked out at 100% and the half-maximal degradation concentration (DC50) fell in the range of 0.01 to 0.1 µM.
With `Cc1ncsc1-c1ccc([C@H](C)NC(=O)[C@@H]2C[C@@H](O)CN2C(=O)[C@@H](NC(=O)Cc2ccc(O[C@H]3C[C@H](NC(=O)C[C@@H]4N=C(c5ccc(Cl)cc5)c5c(sc(C)c5C)-n5c(C)nnc54)C3)cc2)C(C)C)cc1` [Example 280], the Emax came out at 95.4% and the 50% degradation concentration (DC50) lay within 0.01 to 0.1 µM.
Regarding `Cc1ncsc1-c1ccc([C@H](C)NC(=O)[C@@H]2C[C@@H](O)CN2C(=O)[C@@H](NC(=O)/C=C/c2cc(F)cc(OC(C)CNC(=O)C[C@@H]3N=C(c4ccc(Cl)cc4)c4c(sc(C)c4C)-n4c(C)nnc43)c2)C(C)(C)C)cc1` (stereo partly drawn) [Example 188], the Emax was 95.4% and the half-maximal degradation concentration (DC50) was < 0.01 µM.
As for `Cc1ncsc1-c1ccc([C@H](C)NC(=O)[C@@H]2C[C@@H](O)CN2C(=O)[C@@H](NC(=O)COCCC(=O)N2CCN(c3ccc([C@H](C)NC(=O)C[C@@H]4N=C(c5ccc(Cl)cc5)c5c(sc(C)c5C)-n5c(C)nnc54)cc3)CC2)C(C)(C)C)cc1` [Example 48, (2S,4R)-1-[(2S)-2-{2-[3-(4-{4-[(1S)-1-{2-[(9S)-7-(4-chlorophenyl)-4,5,13-trimethyl-3-thia-1,8,11,12-tetraazatricyclo[8.3.0.0^2,^6]trideca-2(6),4,7,10,12-pentaen-9-yl]acetamido}ethyl]phenyl}piperazin-1-yl)-3-oxopropoxy]acetamido}-3,3-dimethylbutanoyl]-4-hydroxy-N-[(1S)-1-[4-(4-methyl-1,3-thiazol-5-yl)phenyl]ethyl]pyrrolidine-2-carboxamide], the Emax was determined as 98% and the DC50 was 0.01 to 0.1 µM.
Turning to `Cc1ncsc1-c1ccc(CNC(=O)[C@@H]2C[C@@H](O)CN2C(=O)[C@H](C(C)C)n2cc(-c3ccnc(O[C@@H](C)CNC(=O)C[C@@H]4N=C(c5ccc(Cl)cc5)c5c(sc(C)c5C)-n5c(C)nnc54)c3)cn2)cc1` [Example 180], the Emax is 98.5% and the DC50 lay within 0.01 to 0.1 µM.
On to `Cc1ncsc1-c1ccc(CNC(=O)[C@@H]2C[C@@H](O)CN2C(=O)[C@@H](NC(=O)COCCCOCCCOc2ccc(C(C)(C)NC(=O)C[C@@H]3N=C(c4ccc(Cl)cc4)c4c(sc(C)c4C)-n4c(C)nnc43)cc2)C(C)(C)C)cc1` [Example 37], for which the Emax was 96% and the DC50 was in the range of 0.01 to 0.1 µM.
In the case of `Cc1ncsc1-c1ccc(CNC(=O)[C@@H]2C[C@@H](O)CN2C(=O)[C@@H](NC(=O)COCCn2ccc(-c3ccc([C@@H](C)NC(=O)C[C@@H]4N=C(c5ccc(Cl)cc5)c5c(sc(C)c5C)-n5c(C)nnc54)cc3)cc2=O)C(C)(C)C)cc1` [Example 35], the Emax came to 37% and the DC50 was > 1 µM.
Regarding `Cc1ncsc1-c1ccc([C@H](C)NC(=O)[C@@H]2C[C@@H](O)CN2C(=O)[C@H](C(C)C)n2cc(-c3ccnc(O[C@H]4C[C@@H](NC(=O)C[C@@H]5N=C(c6ccc(Cl)cc6)c6c(sc(C)c6C)-n6c(C)nnc65)C4)c3)cn2)cc1` [Example 219, (2S,4R)-4-hydroxy-N-[(1S)-1-[4-(4-methyl-1,3-thiazol-5-yl)phenyl]ethyl]-1-[(2S)-3-methyl-2-(4-{2-[(1,3-cis)-3-{2-[(9S)-7-(4-chlorophenyl)-4,5,13-trimethyl-3-thia-1,8,11,12-tetraazatricyclo[8.3.0.0^2,^6]trideca-2(6),4,7,10,12-pentaen-9-yl]acetamido}cyclobutoxy]pyridin-4-yl}-1H-pyrazol-1-yl)butanoyl]pyrrolidine-2-carboxamide], the Emax turned out to be 95.5% and the 50% degradation concentration (DC50) is < 0.01 µM.
Regarding `Cc1ncsc1-c1ccc(CNC(=O)[C@@H]2C[C@@H](O)CN2C(=O)[C@@H](NC(=O)COCCCNC(=O)C[C@@H]2N=C(c3ccc(Cl)cc3)c3c(sc(C)c3C)-n3c(C)nnc32)C(C)(C)C)cc1` [Example 44], the Emax stood at 98% and the DC50 lay within 0.1 to 1 µM.
With `C=Cc1ccc(C2=N[C@@H](CC(=O)Nc3ccc(OCCCOCCCOCC(=O)N[C@H](C(=O)N4C[C@H](O)C[C@H]4C(=O)NCc4ccc(-c5scnc5C)cc4)C(C)(C)C)cc3)c3nnc(C)n3-c3sc(C)c(C)c32)cc1` [Example 63], the Emax amounted to 98.5% and the DC50 was in the range of 0.01 to 0.1 µM.
For `Cc1ncsc1-c1ccc([C@H](C)NC(=O)[C@@H]2C[C@@H](O)CN2C(=O)[C@H](C(C)C)n2cc(-c3ccc(O[C@H]4C[C@H](NC(=O)C[C@@H]5N=C(c6ccc(Cl)cc6)c6c(sc(C)c6C)-n6c(C)nnc65)C4)nc3)cn2)cc1` [Example 269], the Emax worked out at 96.4% and the DC50 is < 0.01 µM.
For `Cc1ncsc1-c1ccc(CNC(=O)[C@@H]2C[C@@H](O)CN2C(=O)[C@@H](NC(=O)COCCOCCOc2ccc3c(c2)c2c(C(N)=O)cc(-c4c(C)noc4C)cc2n3Cc2ccccc2)C(C)(C)C)cc1` [Example 174], the Emax was determined as 96.4% and the half-maximal degradation concentration (DC50) lay within 0.01 to 0.1 µM.
Regarding `Cc1ncsc1-c1ccc(CNC(=O)[C@@H]2C[C@@H](O)CN2C(=O)[C@@H](NC(=O)COCCCOc2ccc(-c3ccc(NC(=O)C[C@@H]4N=C(c5ccc(Cl)cc5)c5c(sc(C)c5C)-n5c(C)nnc54)c(F)c3)nc2)C(C)(C)C)cc1` [Example 24], the Emax was 87.5% and the DC50 lay within 0.01 to 0.1 µM.
Take `Cc1ncsc1-c1ccc(CNC(=O)C2C[C@@H](O)CN2C(=O)[C@@H](NC(=O)COc2ccccc2OCCCNC(=O)C[C@@H]2N=C(c3ccc(Cl)cc3)c3c(sc(C)c3C)-n3c(C)nnc32)C(C)(C)C)cc1` (stereo partly drawn) [Example 107]: the Emax turned out to be 86.6% and the DC50 was in the range of 0.01 to 0.1 µM.
`Cc1ncsc1-c1ccc([C@H](C)NC(=O)[C@@H]2C[C@@H](O)CN2C(=O)[C@@H](NC(=O)Cc2ccc(-c3cn([C@H](C)CNC(=O)C[C@@H]4N=C(c5ccc(Cl)cc5)c5c(sc(C)c5C)-n5c(C)nnc54)cn3)cc2)C(C)(C)C)cc1` [Example 340]: the Emax worked out at 92.2% and the DC50 is 0.01 to 0.1 µM.
With `Cc1ncsc1-c1ccc(CNC(=O)[C@@H]2C[C@@H](O)CN2C(=O)[C@@H](NC(=O)COCCCOCCOc2cc(NC(=O)C[C@@H]3N=C(c4ccc(Cl)cc4)c4c(sc(C)c4C)-n4c(C)nnc43)ccc2F)C(C)(C)C)cc1` [Example 130], the Emax turned out to be 99% and the DC50 was < 0.01 µM.
As for `Cc1sc2c(c1C)C(c1ccc(Cl)cc1)=N[C@@H](CC(=O)N[C@H]1C[C@H](Oc3ccc(CC(=O)N[C@H](C(=O)N4C[C@H](O)C[C@H]4C(=O)N[C@@H](C)c4ccc(S(C)(=O)=O)cc4)C(C)(C)C)cc3)C1)c1nnc(C)n1-2` [Example 307], the Emax was 15% and the DC50 was > 1 µM.
